Laboratory results as given in the NIST ThermoML archive (doi:10.1021/je020140j).

Experiment: molar heat capacity at constant pressure; xn = mol fraction of the nth substance listed
Details: 101 kPa, Liquid, Small sample (50 mg) DSC

OCCO [1,2-ethanediol] + O
molar heat capacity at constant pressure [J/K/mol]
Details | x1 = 0.0312 | x1 = 0.0676 | x1 = 0.1105 | x1 = 0.162 | x1 = 0.2248 | x1 = 0.3031 | x1 = 0.4036 | x1 = 0.537 | x1 = 0.723 | x1 = 1
293.15 K | 88.03 | 87.6 | 86.7 | 89.39 | 93.61 | 98.37 | 104.66 | 114.3 | 127.9 | 147.47
303.15 K | 87.89 | 87.81 | 87.05 | 89.67 | 94.42 | 99.15 | 105.99 | 115.72 | 129.45 | 149.71
313.15 K | 88.36 | 88.19 | 87.48 | 90.47 | 94.89 | 100.31 | 108.06 | 117.68 | 131.2 | 152
323.15 K | 88.63 | 88.59 | 87.53 | 91 | 95.93 | 101.88 | 109.53 | 119.76 | 133.39 | 153.8
333.15 K | 88.8 | 88.99 | 87.76 | 91.5 | 96.6 | 102.38 | 111 | 121.18 | 135.38 | 156.22
343.15 K | 88.88 | 89.1 | 88.31 | 92.56 | 97.46 | 103.64 | 111.93 | 122.85 | 138.08 | 159.7
353.15 K | 89.15 | 89.47 | 88.97 | 92.31 | 98.61 | 104.99 | 113.83 | 124.97 | 140.57 | 161
363.15 K | 89.25 | 89.6 | 89.27 | 93.51 | 99.61 | 106.52 | 115.04 | 126.81 | 142.17 | 164.98
373.15 K | – | – | 89.52 | 93.89 | 100.23 | 107.47 | 116.01 | 128.22 | 144.36 | 168.45
